Laboratory results: patent publication US20180191012A1, “AQUEOUS […]-BASED REDOX FLOW BATTERIES” (UCHICAGO ARGONNE, LLC, priority 2016, published 2018)

Conditions: 10 mM compound in 0.5 M aqueous NaCl; well-defined, reversible redox waves

Compound: c1cc[n+]2c(c1)-c1cccc[n+]1CC2 [A, N,N′-(ethan-1,2-diyl)-2,2′-bipyridinedium dibromide]
- redox potential versus Ag/AgCl: −0.60 V
